Measured values from US12054714B2, “Peptide docking vehicle for targeted nucleic acid delivery” (Sirnaomics, Inc., priority 2019, dated 2024).
pIC50: −log10 of the molar value. {GalNAc3} = trivalent GalNAc cluster through an NHC6 amino-hexyl linker

Experiments:
[1] = system: ahsa1; experiment: Dose-response screen in primary mouse hepatocytes, ahsa1-specific probe (standard control); type: cell-based; conditions: 72 hours
Protocol: (§1) Dose-response screens for GalNAc-conjugated siRNAs (mTTR1-PDoV3-GalNAc3, mTTR1-PDoV2-GalNAc3, mTTR2-GalNAc3 positive control, mTTR2-GalNAc3 positive control) were performed using primary mouse hepatocytes for target TTR. The cell density was 40000 cells/96 well. The concentration was from: highest at 1 μM in 5-fold dilutions to lowest at […]. Cells were transfected by direct incubation for 72 hours. The data was read out by bDNA assay. The data was analyzed by XLfit software. TTR signal normalized to gapdh, mean of quadruplicates, mock-treated cells set=1, Xlfit for calculation of IC50 values. The primary hepatocytes used were purchased from Primacyt, Germany (lot MH181219), derived from CD 1 mice, and treated with siRNA right after thawing.
(§2) The two siRNAs were both conjugated to trivalent GalNAc clusters at the 3′ end (mTTR2 siRNA sequence was a fully modified sequence and 4 more additional PS linkages modification on the oligonucleotides than mTTR1. (Nair, et al., J. Am. Chem. Soc. 136:16958-16961(2014). Aha1-GaNAc3 positive control was used as a standard control, targeted to the housekeeper ahsa1. This was used as both negative and positive control, hybridizing the cell lysates either to the screening target or to an ahsa1-specific probe. Table e1 lists the sequences of the 2 control siRNAs and the structure of the GalNAc cluster. Table e1. Control siRNA sequence and targets. (Images discloses SEQ ID NOS 36, 47-48, 59, and 47-48, respectively, in order of appearance)

[2] = system: TTR; experiment: Dose-response screen of GalNAc-conjugated siRNAs in primary mouse hepatocytes, bDNA read-out; type: cell-based; conditions: direct incubation 72 hours
Protocol: as §1, §2

Substance | pIC50 [1] | IC80 [1] | Max. KD [1] | IC80 ([2]; TTR signal normalized to gapdh) | pIC50 ([2]; TTR signal normalized to gapdh, Xlfit) | Max. KD ([2]; highest concentration 1 μM)
aha1-GalNAc3 positive control: standard control siRNA targeted to the housekeeper ahsa1, conjugated to trivalent GalNAc cluster at 3′ end (SEQ ID NO: 41/42) (chain 1 UCUCGUGGCCUUAAUGAAA; chain 2 UUUCAUUAAGGCCACGAGAUU; chain 1: linkages s2 o16 (s phosphorothioate, o phosphodiester), 3' {GalNAc3}, sugars by position and methylation of C not given here; chain 2: linkages s2 o16 s2 (s phosphorothioate, o phosphodiester), sugars by position and methylation of C not given here; further chemistry not fully specified) | 8.82 | 5.9 nM | 96% | – | – | –
mTTR2-GalNAc3 positive control: fully modified siRNA against mouse TTR conjugated to trivalent GalNAc cluster at the 3′ end (SEQ ID NO: 39/40; Nair et al.) (chain 1 AACAGUGUUCUUGCUCUAUAA; chain 2 UUAUAGAGCAAGAACACUGUUUU; chain 1: linkages s2 o18 (s phosphorothioate, o phosphodiester), 3' {GalNAc3}, sugars by position and methylation of C not given here; chain 2: linkages s2 o18 s2 (s phosphorothioate, o phosphodiester), sugars by position and methylation of C not given here; fully modified, Nf 2'-fluoro, further chemistry not fully specified) | – | – | – | 0.3 nM | 10.00 | 96%
